Laboratory results taken from PubChem BioAssay (NCI).
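Growth conditions: 96-well plates. Treatment: test compound, 48 hours, 5 concentrations. Analysis: linear interpolation between bracketing concentrations; unreached endpoints set to highest concentration. At the GI50, growth is halved. Definition used: TGI = concentration required for complete inhibition of growth.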

What was measured:
Test in all cases: inhibition of tumour cell growth, NCI panel, 48 h
CCRF-CEM leukemia = tested on: CCRF-CEM leukemia
786-0 renal = tested on: 786-0 renal
SK-OV-3 ovarian = tested on: SK-OV-3 ovarian
SF-539 CNS = tested on: SF-539 CNS
BT-549 breast = tested on: BT-549 breast
OVCAR-3 ovarian = tested on: OVCAR-3 ovarian
MDA-MB-435 = tested on: MDA-MB-435
SNB-19 CNS = tested on: SNB-19 CNS
LOX IMVI melanoma = tested on: LOX IMVI melanoma
SR leukemia = tested on: SR leukemia

In the case of `Cn1c(SCc2ccc([N+](=O)[O-])cc2)nnc1C12CC3CC(CC(C3)C1)C2`, the TGI (CCRF-CEM leukemia) was greater than 10 µM, the TGI (786-0 renal) was greater than 10 µM and the TGI (SK-OV-3 ovarian) was greater than 10 µM. It also gave a TGI (SF-539 CNS) greater than 10 µM, a TGI (BT-549 breast) greater than 10 µM and a TGI (OVCAR-3 ovarian) greater than 10 µM. It also gave a TGI (MDA-MB-435) greater than 10 µM, a TGI (SNB-19 CNS) greater than 10 µM and a TGI (LOX IMVI melanoma) greater than 10 µM.

`COc1ccc(CNCCN2C(=O)c3ccc4c5c(ccc(c35)C2=O)C(=O)N(CCNCc2ccc(OC)c(OC)c2OC)C4=O)c(OC)c1OC` gave a GI50 (CCRF-CEM leukemia) of 0.273 µM, a TGI (CCRF-CEM leukemia) of 50 µM and a GI50 (SK-OV-3 ovarian) of 1.67 µM. The TGI (SK-OV-3 ovarian) was 50 µM, the GI50 (OVCAR-3 ovarian) was 0.121 µM and the TGI (OVCAR-3 ovarian) was 0.353 µM. The GI50 (MDA-MB-435) was 0.25 µM, the TGI (MDA-MB-435) was 0.801 µM and the GI50 (SNB-19 CNS) was 0.429 µM. It also gave a TGI (SNB-19 CNS) of 4.13 µM.

`N#Cc1cc([N+](=O)[O-])ccc1NC(=O)C(=O)Nn1c(=S)[nH]c2ccccc2c1=O` was tested, and the TGI (CCRF-CEM leukemia) was greater than 100 µM, the TGI (786-0 renal) was greater than 100 µM and the TGI (SK-OV-3 ovarian) was greater than 100 µM. The TGI (SF-539 CNS) was greater than 100 µM, the TGI (OVCAR-3 ovarian) was greater than 100 µM and the TGI (SNB-19 CNS) was greater than 100 µM. For the same compound, the TGI (SR leukemia) was greater than 100 µM and the TGI (LOX IMVI melanoma) was greater than 100 µM.

For `Cc1ccc2c(=O)cc(-c3ccccc3)[nH]c2n1`, the TGI (786-0 renal) was greater than 86 µM, the TGI (SK-OV-3 ovarian) was greater than 21 µM and the TGI (SF-539 CNS) was 2.79 µM. The TGI (BT-549 breast) was greater than 100 µM, the TGI (OVCAR-3 ovarian) was 0.308 µM and the TGI (MDA-MB-435) was 0.0321 µM. It also gave a TGI (SNB-19 CNS) greater than 100 µM and a TGI (LOX IMVI melanoma) greater than 100 µM.

With `CCN1CCC(O)(/C=C/c2ccc(Cl)c(Cl)c2)C(C(=O)/C=C/c2ccc(Cl)c(Cl)c2)C1` (centres undefined) the TGI (CCRF-CEM leukemia) was 1.13 µM, the TGI (786-0 renal) was 2.7 µM and the TGI (SK-OV-3 ovarian) was 4.61 µM. For the same compound, the TGI (SF-539 CNS) was 3.55 µM, the TGI (BT-549 breast) was 2.01 µM and the TGI (OVCAR-3 ovarian) was 1.91 µM. It also gave a TGI (MDA-MB-435) of 2.22 µM, a TGI (SNB-19 CNS) of 3.71 µM and a TGI (LOX IMVI melanoma) of 2.02 µM.

In the case of `COc1cccc2c1CCc1sc(CN3CCN(C)CC3)nc1-2`, the TGI (CCRF-CEM leukemia) was 53.5 µM, the TGI (786-0 renal) was greater than 100 µM and the TGI (SK-OV-3 ovarian) was greater than 100 µM. For the same compound, the TGI (BT-549 breast) was greater than 100 µM, the TGI (OVCAR-3 ovarian) was greater than 100 µM and the TGI (MDA-MB-435) was greater than 100 µM. For the same compound, the TGI (SNB-19 CNS) was greater than 100 µM.

`CC(=O)OC1CC[C@@]2(C)C(=CC[C@@H]3[C@@H]2CC[C@]2(C)Nc4c(cnn4-c4ccc(F)cc4)C[C@@H]32)C1` (some centres undefined) was tested, and the TGI (CCRF-CEM leukemia) was greater than 100 µM, the TGI (786-0 renal) was greater than 59.2 µM and the TGI (SK-OV-3 ovarian) was greater than 100 µM. The TGI (SF-539 CNS) was 17.2 µM, the TGI (BT-549 breast) was greater than 100 µM and the TGI (OVCAR-3 ovarian) was greater than 100 µM. The TGI (MDA-MB-435) was greater than 100 µM, the TGI (SNB-19 CNS) was greater than 100 µM and the TGI (LOX IMVI melanoma) was greater than 58.6 µM.

`CN(CCCNC(=O)c1[nH]nc2c1ccc1ccccc12)CCCNC(=O)c1[nH]nc2c1ccc1ccccc12` was tested, and the TGI (CCRF-CEM leukemia) was 29.4 µM, the TGI (786-0 renal) was 22.9 µM and the TGI (SK-OV-3 ovarian) was 34.2 µM. It also gave a TGI (SF-539 CNS) of 24 µM, a TGI (BT-549 breast) of 29.4 µM and a TGI (OVCAR-3 ovarian) of 29 µM. For the same compound, the TGI (MDA-MB-435) was 7.71 µM, the TGI (SNB-19 CNS) was 37.6 µM and the TGI (LOX IMVI melanoma) was 25.9 µM.

For `Cn1cnc([N+](=O)[O-])c1Sc1nnc(-c2ccc(Cl)cc2)n1C`, the TGI (CCRF-CEM leukemia) was 22 µM, the TGI (SK-OV-3 ovarian) was greater than 100 µM and the TGI (SF-539 CNS) was 37.4 µM. For the same compound, the TGI (OVCAR-3 ovarian) was 26.9 µM, the TGI (SNB-19 CNS) was greater than 100 µM and the TGI (SR leukemia) was 33.7 µM. It also gave a TGI (LOX IMVI melanoma) of 20.6 µM.

`C=c1c2ccccc2oc2nc3[nH]c(N)c(C#N)c(N)c3c(=N)c12` was tested, and the TGI (CCRF-CEM leukemia) was greater than 100 µM, the TGI (786-0 renal) was greater than 100 µM and the TGI (SK-OV-3 ovarian) was greater than 100 µM. The TGI (SF-539 CNS) was 71.5 µM, the TGI (BT-549 breast) was greater than 100 µM and the TGI (OVCAR-3 ovarian) was 43.3 µM. For the same compound, the TGI (MDA-MB-435) was greater than 100 µM, the TGI (SNB-19 CNS) was greater than 100 µM and the TGI (LOX IMVI melanoma) was 68.4 µM.

Work on `O=C1C(Nc2ccc(S(=O)(=O)Nc3cnc4ccccc4n3)cc2)=CC(=Nc2ccc(S(=O)(=O)Nc3cnc4ccccc4n3)cc2)c2ccccc21` yielded a TGI (CCRF-CEM leukemia) of 57 µM, a TGI (786-0 renal) of 31.6 µM and a TGI (SK-OV-3 ovarian) of 31 µM. The TGI (SF-539 CNS) was 35.7 µM, the TGI (OVCAR-3 ovarian) was 47.6 µM and the TGI (MDA-MB-435) was 34 µM. It also gave a TGI (SNB-19 CNS) of 29 µM, a TGI (SR leukemia) greater than 73.9 µM and a TGI (LOX IMVI melanoma) of 30.7 µM.
